Data published in PMC9090415, “Discovery of small molecule inhibitors of Plasmodium falciparum apicoplast DNA polymerase” (Journal of Enzyme Inhibition and Medicinal Chemistry, 2022).

Molecular target: P. falciparum apicoplast DNA polymerase (Pf-apPOL) (Plasmodium falciparum, UniProt Q8ILY1)
Experiment: Fluorescence-based high-throughput DNA polymerase assay (molecular beacon), primary screen and dose-response;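 as to % inhibition ApPOL 90': test concentration in µM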;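 as to % inhibition apPOL 180': test concentration in µM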
Assay type: biochemical
In short: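 Single-point screening used 10 µM compound with 20 nM polymerase, 20 nM hairpin substrate and 6 µM dNTPs for 90 min at 25 °C. Confirmatory titrations (2.5–80 µM) followed fluorescence at three times, and IC50 was derived from a fit including a cooperativity term n.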

P. falciparum apicoplast DNA polymerase (Pf-apPOL), sequence (Q8ILY1 entry or part of it): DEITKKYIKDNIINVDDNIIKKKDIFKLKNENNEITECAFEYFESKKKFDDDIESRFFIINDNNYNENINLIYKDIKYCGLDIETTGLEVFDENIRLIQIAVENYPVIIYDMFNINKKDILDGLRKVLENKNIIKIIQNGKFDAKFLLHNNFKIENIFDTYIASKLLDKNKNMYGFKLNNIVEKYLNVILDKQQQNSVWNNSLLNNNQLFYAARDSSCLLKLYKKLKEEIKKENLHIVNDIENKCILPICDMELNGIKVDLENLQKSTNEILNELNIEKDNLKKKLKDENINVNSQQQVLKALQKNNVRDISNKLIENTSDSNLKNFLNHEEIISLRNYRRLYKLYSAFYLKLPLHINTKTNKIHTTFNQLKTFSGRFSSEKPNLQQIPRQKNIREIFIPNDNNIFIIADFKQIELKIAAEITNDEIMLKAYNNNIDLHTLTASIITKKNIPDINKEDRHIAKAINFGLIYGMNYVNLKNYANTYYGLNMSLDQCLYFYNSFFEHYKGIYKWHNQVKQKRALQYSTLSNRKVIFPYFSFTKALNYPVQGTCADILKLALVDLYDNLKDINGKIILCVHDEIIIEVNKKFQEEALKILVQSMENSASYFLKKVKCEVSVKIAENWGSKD

O=C(O)CC1SC(c2ccc3c(c2)OCO3)=NC1=O (stereo not shown) [Molecule 69, OC(=O)CC1SC(=NC1=O)c1ccc2c(c1)OCO2]
DNA Pol ('DNA Pol'; screening value, unit not given; 90 min, 10 µM): 73
% inhibition Apo pol 10' (DRC-1; 10'; concentration 2.5): 9.093%
% inhibition Apo pol 10' (DRC-1; 10'; concentration 5): 10.6697%
% inhibition Apo pol 10' (DRC-1; 10'; concentration 10): 24.5481%
% inhibition Apo pol 10' (DRC-1; 10'; concentration 20): 37.0336%
% inhibition Apo pol 10' (DRC-1; 10'; concentration 40): 59.8933%
% inhibition Apo pol 10' (DRC-1; 10'; concentration 80): 73.2432%
% inhibition Apol 90' (DRC-1; 90'; concentration 2.5): 0.8612%
% inhibition Apol 90' (DRC-1; 90'; concentration 5): 2.259%
% inhibition Apol 90' (DRC-1; 90'; concentration 10): 10.3106%
% inhibition Apol 90' (DRC-1; 90'; concentration 20): 18.6533%
% inhibition Apol 90' (DRC-1; 90'; concentration 40): 43.3337%
% inhibition Apol 90' (DRC-1; 90'; concentration 80): 58.9692%
% inhibition apPOL 180' (DRC-1; 180'; concentration 2.5): -4.62%
% inhibition apPOL 180' (DRC-1; 180'; concentration 5): -4.006%
% inhibition apPOL 180' (DRC-1; 180'; concentration 10): 2.363%
% inhibition apPOL 180' (DRC-1; 180'; concentration 20): 9.6301%
% inhibition apPOL 180' (DRC-1; 180'; concentration 40): 35.5256%
% inhibition apPOL 180' (DRC-1; 180'; concentration 80): 52.4762%
% inhibition Apo pol 5' (DRC-2, 5', concentration 2.5): 14%
% inhibition Apo pol 5' (DRC-2, 5', concentration 5): 9%
% inhibition Apo pol 5' (DRC-2, 5', concentration 10): 20%
% inhibition Apo pol 5' (DRC-2, 5', concentration 20): 29%
% inhibition Apo pol 5' (DRC-2, 5', concentration 40): 41%
% inhibition Apo pol 5' (DRC-2, 5', concentration 80): 49%
% inhibition Apol 40' (DRC-2, 40', concentration 2.5): 9%
% inhibition Apol 40' (DRC-2, 40', concentration 5): 7%
% inhibition Apol 40' (DRC-2, 40', concentration 10): 16%
% inhibition Apol 40' (DRC-2, 40', concentration 20): 23%
% inhibition Apol 40' (DRC-2, 40', concentration 40): 37%
% inhibition Apol 40' (DRC-2, 40', concentration 80): 51%
% inhibition ApPOL 90' (DRC-2, 90', concentration 2.5): 5.65%
% inhibition ApPOL 90' (DRC-2, 90', concentration 5): 4%
% inhibition ApPOL 90' (DRC-2, 90', concentration 10): 10%
% inhibition ApPOL 90' (DRC-2, 90', concentration 20): 16%
% inhibition ApPOL 90' (DRC-2, 90', concentration 40): 33%
% inhibition ApPOL 90' (DRC-2, 90', concentration 80): 50%
% inhibition apPOL 180' (DRC-2, 180', concentration 2.5): -0.895%
% inhibition apPOL 180' (DRC-2, 180', concentration 5): -1.56%
% inhibition apPOL 180' (DRC-2, 180', concentration 10): 3%
% inhibition apPOL 180' (DRC-2, 180', concentration 20): 7%
% inhibition apPOL 180' (DRC-2, 180', concentration 40): 23%
% inhibition apPOL 180' (DRC-2, 180', concentration 80): 43%
% inhibition Apol 40' (conc 2.5 (unit not given); 40'; DRC-2): 9%
% inhibition Apo pol 5' (conc 5 (unit not given); 5'; DRC-2): 9%
% inhibition Apol 40' (conc 5 (unit not given); 40'; DRC-2): 7%
% inhibition Apol 40' (conc 10 (unit not given); 40'; DRC-2): 16%
% inhibition Apol 40' (conc 20 (unit not given); 40'; DRC-2): 23%
% inhibition ApPOL 90' (conc 20 (unit not given); 90'; DRC-2): 16%
% inhibition apPOL 180' (conc 20 (unit not given); 180'; DRC-2): 7%
% inhibition apPOL 180' (conc 40 (unit not given); 180'; DRC-2): 23%
DNA Pol (primary screen hit value, DNA Pol (186 hits); 90 min, 10 µM): 73

Oc1ccc(N=Nc2ccccc2)c(O)c1 [Molecule 80, Oc1ccc(c(c1)O)N=Nc1ccccc1]
DNA Pol (186 hits, value of the hit list (primary screen); unit not given; 90 min, 10 µM): 72
% inhibition Apo pol 10' (DRC-1; 10'; concentration 2.5): 10.9556%
% inhibition Apo pol 10' (DRC-1; 10'; concentration 5): 10.5427%
% inhibition Apo pol 10' (DRC-1; 10'; concentration 10): 21.5612%
% inhibition Apo pol 10' (DRC-1; 10'; concentration 20): 33.6555%
% inhibition Apo pol 10' (DRC-1; 10'; concentration 40): 51.3856%
% inhibition Apo pol 10' (DRC-1; 10'; concentration 80): 71.5271%
% inhibition Apol 90' (DRC-1; 90'; concentration 2.5): -0.1987%
% inhibition Apol 90' (DRC-1; 90'; concentration 5): 0.4517%
% inhibition Apol 90' (DRC-1; 90'; concentration 10): 6.956%
% inhibition Apol 90' (DRC-1; 90'; concentration 20): 15.0719%
% inhibition Apol 90' (DRC-1; 90'; concentration 40): 30.4244%
% inhibition Apol 90' (DRC-1; 90'; concentration 80): 54.1765%
% inhibition apPOL 180' (DRC-1; 180'; concentration 2.5): -4.521%
% inhibition apPOL 180' (DRC-1; 180'; concentration 5): -7.381%
% inhibition apPOL 180' (DRC-1; 180'; concentration 10): -2.239%
% inhibition apPOL 180' (DRC-1; 180'; concentration 20): 3.639%
% inhibition apPOL 180' (DRC-1; 180'; concentration 40): 16.6852%
% inhibition apPOL 180' (DRC-1; 180'; concentration 80): 39.1474%
% inhibition Apo pol 5' (DRC-2, 5', concentration 2.5): 1.77%
% inhibition Apo pol 5' (DRC-2, 5', concentration 5): 5.48%
% inhibition Apo pol 5' (DRC-2, 5', concentration 10): 24%
% inhibition Apo pol 5' (DRC-2, 5', concentration 20): 31%
% inhibition Apo pol 5' (DRC-2, 5', concentration 40): 44%
% inhibition Apo pol 5' (DRC-2, 5', concentration 80): 51%
% inhibition Apol 40' (DRC-2, 40', concentration 2.5): 1.06%
% inhibition Apol 40' (DRC-2, 40', concentration 5): 2.17%
% inhibition Apol 40' (DRC-2, 40', concentration 10): 23%
% inhibition Apol 40' (DRC-2, 40', concentration 20): 29%
% inhibition Apol 40' (DRC-2, 40', concentration 40): 43%
% inhibition Apol 40' (DRC-2, 40', concentration 80): 54%
% inhibition ApPOL 90' (DRC-2, 90', concentration 2.5): -1%
% inhibition ApPOL 90' (DRC-2, 90', concentration 5): -0.664%
% inhibition ApPOL 90' (DRC-2, 90', concentration 10): 21%
% inhibition ApPOL 90' (DRC-2, 90', concentration 20): 24%
% inhibition ApPOL 90' (DRC-2, 90', concentration 40): 38%
% inhibition ApPOL 90' (DRC-2, 90', concentration 80): 52%
% inhibition apPOL 180' (DRC-2, 180', concentration 2.5): -4%
% inhibition apPOL 180' (DRC-2, 180', concentration 5): -4.42%
% inhibition apPOL 180' (DRC-2, 180', concentration 10): 16%
% inhibition apPOL 180' (DRC-2, 180', concentration 20): 15%
% inhibition apPOL 180' (DRC-2, 180', concentration 40): 25%
% inhibition apPOL 180' (DRC-2, 180', concentration 80): 41%
% inhibition Apo pol 5' (DRC-2; 5'; concentration 10): 24%
% inhibition ApPOL 90' (DRC-2; 90'; concentration 20): 24%
DNA Pol (primary screen value, 'DNA Pol' only; 90 min, 10 µM): 72

Oc1cccc2ccc(/C=C/c3ccc4c(c3)OCO4)nc12 [KU0025984]
% inhibition Apo pol 10' (DRC-1; 10'; concentration 2.5): -0.2183%
% inhibition Apo pol 10' (DRC-1; 10'; concentration 5): 11.208%
% inhibition Apo pol 10' (DRC-1; 10'; concentration 10): 38.8453%
% inhibition Apo pol 10' (DRC-1; 10'; concentration 20): 79.6836%
% inhibition Apo pol 10' (DRC-1; 10'; concentration 40): 89.9069%
% inhibition Apo pol 10' (DRC-1; 10'; concentration 80): 93.1389%
% inhibition Apol 90' (DRC-1; 90'; concentration 2.5): -7.534%
% inhibition Apol 90' (DRC-1; 90'; concentration 5): 4.814%
% inhibition Apol 90' (DRC-1; 90'; concentration 10): 24.6628%
% inhibition Apol 90' (DRC-1; 90'; concentration 20): 70.7764%
% inhibition Apol 90' (DRC-1; 90'; concentration 40): 83.7672%
% inhibition Apol 90' (DRC-1; 90'; concentration 80): 87.8493%
% inhibition apPOL 180' (DRC-1; 180'; concentration 2.5): -11.2426%
% inhibition apPOL 180' (DRC-1; 180'; concentration 5): -1.027%
% inhibition apPOL 180' (DRC-1; 180'; concentration 10): 13.0398%
% inhibition apPOL 180' (DRC-1; 180'; concentration 20): 59.792%
% inhibition apPOL 180' (DRC-1; 180'; concentration 40): 76.8882%
% inhibition apPOL 180' (DRC-1; 180'; concentration 80): 82.4453%
% inhibition Apo pol 5' (DRC-2, 5', concentration 2.5 (unit not given)): 14%
% inhibition Apol 40' (DRC-2, 40', concentration 2.5 (unit not given)): 14%
% inhibition ApPOL 90' (DRC-2, 90', concentration 20 (unit not given)): 70%
% inhibition apPOL 180' (DRC-2, 180', concentration 5 (unit not given)): 12%
% inhibition apPOL 180' (DRC-2, 180', concentration 40 (unit not given)): 70%
% inhibition Apo pol 5' (DRC-2; 5'; concentration 2.5): 14%
% inhibition Apo pol 5' (DRC-2; 5'; concentration 5): 21%
% inhibition Apo pol 5' (DRC-2; 5'; concentration 10): 38%
% inhibition Apo pol 5' (DRC-2; 5'; concentration 20): 50%
% inhibition Apo pol 5' (DRC-2; 5'; concentration 40): 52%
% inhibition Apo pol 5' (DRC-2; 5'; concentration 80): 53%
% inhibition Apol 40' (DRC-2; 40'; concentration 2.5): 14%
% inhibition Apol 40' (DRC-2; 40'; concentration 5): 25%
% inhibition Apol 40' (DRC-2; 40'; concentration 10): 47%
% inhibition Apol 40' (DRC-2; 40'; concentration 20): 69%
% inhibition Apol 40' (DRC-2; 40'; concentration 40): 71%
% inhibition Apol 40' (DRC-2; 40'; concentration 80): 74%
% inhibition ApPOL 90' (DRC-2; 90'; concentration 2.5): 12%
% inhibition ApPOL 90' (DRC-2; 90'; concentration 2.5 (unit not given)): 12%
% inhibition ApPOL 90' (DRC-2; 90'; concentration 5): 24%
% inhibition ApPOL 90' (DRC-2; 90'; concentration 10): 45%
% inhibition ApPOL 90' (DRC-2; 90'; concentration 20): 70%
% inhibition ApPOL 90' (DRC-2; 90'; concentration 40): 72%
% inhibition ApPOL 90' (DRC-2; 90'; concentration 80): 77%
% inhibition apPOL 180' (DRC-2; 180'; concentration 2.5): -0.452%
% inhibition apPOL 180' (DRC-2; 180'; concentration 5): 12%
% inhibition apPOL 180' (DRC-2; 180'; concentration 10): 35%
% inhibition apPOL 180' (DRC-2; 180'; concentration 20): 66%
% inhibition apPOL 180' (DRC-2; 180'; concentration 40): 70%
% inhibition apPOL 180' (DRC-2; 180'; concentration 80): 78%
DNA Pol (primary screen value of the 186 hits; unit not given; 90 min, 10 µM): 45
DNA Pol (primary screen value, head "DNA Pol", unit not given; 90 min, 10 µM): 45
